Measured values: ChEMBL document CHEMBL5050844 (2019)

Tests used:
[1] = Induction of anti-CD3/CD28 antibodies-stimulated human T cell activation at 0.3 uM assessed fold increase in IL-2 secretion measured by ELISA assay; type: functional, T cell line
[2] = Induction of anti-CD3/CD28 antibodies-stimulated human T cell activation at 1 uM assessed fold increase in IL-2 secretion measured by ELISA assay; type: functional, T cell line
[3] = Induction of anti-CD3/CD28 antibodies-stimulated human T cell activation at 0.3 uM assessed fold increase in CD25 expression measured by ELISA assay; type: functional, T cell line
[4] = Induction of anti-CD3/CD28 antibodies-stimulated human T cell activation at 1 uM assessed fold increase in CD25 expression measured by ELISA assay; type: functional, T cell line
[5] = Induction of anti-CD3 antibodies-stimulated human T cell activation at 1 uM assessed fold increase in CD25 expression measured by ELISA assay; type: functional, T cell line; also: reference of the scale not given here
[6] = target: E3 ubiquitin-protein ligase CBL-B (Homo sapiens, UniProt Q13191); test: Inhibition of N-terminal Avi-tagged human CBL-B (36 to 427 residues) incubated with 60 nM Src kinase for 1.5 hrs followed by incubation with fluorescently labeled UbcH5B-Ub for 1 hr and measured by TR-FRET assay; type: single protein
[7] = Induction of anti-CD3 antibodies-stimulated human T cell activation at 1 uM assessed fold increase in IL-2 secretion measured by ELISA assay; type: functional, T cell line; also: reference of the scale not given here

Chain of E3 ubiquitin-protein ligase CBL-B (Q13191 whole entry, the tested form may be a part): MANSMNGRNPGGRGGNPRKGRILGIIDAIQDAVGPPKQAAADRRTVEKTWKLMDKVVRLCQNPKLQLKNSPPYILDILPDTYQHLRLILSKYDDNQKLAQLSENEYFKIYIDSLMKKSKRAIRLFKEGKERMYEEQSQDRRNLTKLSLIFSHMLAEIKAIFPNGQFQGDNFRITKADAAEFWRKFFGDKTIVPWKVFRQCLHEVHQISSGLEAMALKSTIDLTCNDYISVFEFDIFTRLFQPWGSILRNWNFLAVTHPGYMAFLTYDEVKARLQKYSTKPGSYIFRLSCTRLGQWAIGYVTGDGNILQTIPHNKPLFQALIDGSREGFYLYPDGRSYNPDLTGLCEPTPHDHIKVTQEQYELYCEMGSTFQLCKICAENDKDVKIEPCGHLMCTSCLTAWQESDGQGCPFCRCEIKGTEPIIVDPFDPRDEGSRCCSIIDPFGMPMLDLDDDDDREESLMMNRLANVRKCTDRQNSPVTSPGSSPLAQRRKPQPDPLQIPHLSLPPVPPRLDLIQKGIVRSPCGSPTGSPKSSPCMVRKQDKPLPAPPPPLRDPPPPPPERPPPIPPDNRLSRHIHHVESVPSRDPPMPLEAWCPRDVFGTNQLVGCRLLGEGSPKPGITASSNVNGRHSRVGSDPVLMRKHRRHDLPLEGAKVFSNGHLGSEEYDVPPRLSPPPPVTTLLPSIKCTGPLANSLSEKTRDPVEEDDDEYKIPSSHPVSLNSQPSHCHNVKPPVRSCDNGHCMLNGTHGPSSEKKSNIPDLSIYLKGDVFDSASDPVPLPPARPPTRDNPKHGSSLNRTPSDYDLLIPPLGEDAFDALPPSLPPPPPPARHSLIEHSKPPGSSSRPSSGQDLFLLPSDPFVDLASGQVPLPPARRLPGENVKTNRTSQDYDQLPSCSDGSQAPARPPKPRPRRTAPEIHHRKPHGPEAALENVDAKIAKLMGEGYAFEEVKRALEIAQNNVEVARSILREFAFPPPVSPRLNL

Structure (SMILES) | fold change (FC) [1] | fold change (FC) [2] | IC50 [6] | other results
CC[C@@H](c1cc2c(c(C(F)(F)F)c1)CN(c1cccc(C3(Cc4nncn4C)COC3)c1)C2=O)N1CC[C@H](F)C1 | >=7.5 | >=7.5 | < 100 nM | fold change (FC) [3]: 1.51; fold change (FC) [4]: 1.51; fold change (FC) [5]: >=1.001; fold change (FC) [7]: >=0.201
Cn1cnnc1CC1(c2cccc(N3Cc4c(cc(CN5CC[C@H](c6ccccc6)C5)cc4C(F)(F)F)C3=O)c2)COC1 | 5 | >=7.5 | < 100 nM | fold change (FC) [3]: 1.01; fold change (FC) [4]: 1.01; fold change (FC) [5]: >=1.001; fold change (FC) [7]: >=0.201
Cn1cnnc1CC1(c2cccc(N3Cc4c(cc(CN5Cc6ccccc6C5)cc4C(F)(F)F)C3=O)c2)COC1 | 5 | >=7.5 | < 100 nM | fold change (FC) [3]: 1.31; fold change (FC) [4]: 1.31; fold change (FC) [5]: >=1.001; fold change (FC) [7]: >=0.201
Cc1conc1CC1(c2cccc(NC(=O)c3cc(CN4CCC5(CC5)C4)cc(C4CC4)n3)c2)COC1 | >=7.5 | >=7.5 | < 100 nM | fold change (FC) [3]: 1.31; fold change (FC) [4]: 1.31; fold change (FC) [5]: >=1.001; fold change (FC) [7]: >=0.201
Cn1cnnc1[C@H](F)C1(c2cccc(N3Cc4c(cc(CN5[C@H]6CC[C@H]5CC(F)C6)cc4C(F)(F)F)C3=O)c2)COC1 (some centres not stated) | >=7.5 | >=7.5 | < 100 nM | fold change (FC) [3]: >=1.76; fold change (FC) [4]: >=1.76; fold change (FC) [5]: >=1.001; fold change (FC) [7]: >=0.201
Cn1cnnc1CC1(c2cccc(N3Cc4c(cccc4C(F)(F)F)C3=O)c2)CC(F)(F)C1 | 2.51 | 5 | < 100 nM | fold change (FC) [3]: 1.01; fold change (FC) [4]: 1.01; fold change (FC) [5]: >=1.001; fold change (FC) [7]: >=0.201
CCOc1cc(N2Cc3c(cc(CN4CC[C@H](F)C4)cc3C(F)(F)F)C2=O)cc(C2(Cc3nncn3C)COC2)c1 | 5 | >=7.5 | < 100 nM | fold change (FC) [3]: 1.31; fold change (FC) [4]: 1.31; fold change (FC) [5]: >=1.001; fold change (FC) [7]: >=0.201
Cn1cnnc1CC1(c2cccc(N3Cc4c(cc(N5CC(C(F)F)C5)nc4C4CC4)C3=O)c2)COC1 | 2.51 | 5 | < 100 nM | fold change (FC) [3]: 1.01; fold change (FC) [4]: 1.01; fold change (FC) [5]: 0.801; fold change (FC) [7]: 0.101
Cn1cnnc1CC1(c2cccc(N3Cc4c(cc(N5CCOCC5)cc4C(F)(F)F)C3=O)c2)COC1 | 5 | >=7.5 | < 100 nM | fold change (FC) [3]: 1.31; fold change (FC) [4]: 1.51; fold change (FC) [5]: >=1.001; fold change (FC) [7]: 0.101
Cn1cnnc1CC1(c2cccc(NC(=O)c3cc(CN4CCC4)nc(C4CC4)n3)c2)COC1 | 2.51 | 5 | < 100 nM | fold change (FC) [3]: 1.01; fold change (FC) [4]: 1.31; fold change (FC) [5]: 0.801; fold change (FC) [7]: 0.051
Cn1cnnc1CC1(c2cccc(NC(=O)c3cc(CN4CC[C@H](O)C4)nc(C4CC4)n3)c2)COC1 | 1.01 | 2.51 | < 100 nM | fold change (FC) [3]: 1.01; fold change (FC) [4]: 1.01; fold change (FC) [5]: 0.601; fold change (FC) [7]: 0.051
CC(c1cc2c(c(C(F)(F)F)c1)CN(c1cccc(C3(Cc4nncn4C)COC3)c1)C2=O)N1CC(S(C)(=O)=O)C1 (configuration not stated) | 1.01 | 1.01 | < 100 nM | fold change (FC) [3]: 1.01; fold change (FC) [4]: 1.01; fold change (FC) [5]: 0.601; fold change (FC) [7]: 0.101
Cn1cnnc1[C@@H](F)C1(c2cccc(N3Cc4c(cc(CN5CCC6(CC6)C5)cc4C(F)(F)F)C3=O)c2)COC1 | 5 | >=7.5 | < 100 nM | fold change (FC) [3]: 1.01; fold change (FC) [4]: 1.31; fold change (FC) [5]: >=1.001; fold change (FC) [7]: 0.101
Cn1cnnc1[C@@H](F)C1(c2cccc(N3Cc4c(cc(CN5C6CCCC5CC6)cc4C(F)(F)F)C3=O)c2)COC1 (stereo in doubt; 671a) | 2.51 | 5 | < 100 nM | fold change (FC) ([3]; 0.3 µM): 1.51; fold change (FC) ([4]; 1 µM): >=1.76; fold change (FC) ([5]; 1 µM): 0.601; fold change (FC) ([7]; 1 µM): >=0.201
Cn1cnnc1[C@@H](F)C1(c2cccc(N3Cc4c(cc(CN5[C@H]6CC[C@H]5CC(F)C6)cc4C(F)(F)F)C3=O)c2)COC1 (some centres not stated) | 2.51 | >=7.5 | < 100 nM | fold change (FC) [3]: >=1.76; fold change (FC) [4]: >=1.76; fold change (FC) [5]: 0.801; fold change (FC) [7]: >=0.201
Cn1cnnc1CC1(c2cccc(N3Cc4c(cc(CN5CCO[C@H](C(F)(F)F)C5)cc4C(F)(F)F)C3=O)c2)COC1 |  |  | < 100 nM | 
Cn1cnnc1CC1(c2cccc(N3Cc4c(cc(C5CCCOC5)cc4C(F)(F)F)C3=O)c2)COC1 (configuration not stated) |  |  | < 100 nM | 
C[C@H]1CCN(Cc2cc3c(c(C(F)(F)F)c2)CN(c2cccc(C4(Cc5nncn5C)COC4)c2)C3=O)C[C@H]1F |  |  | < 100 nM | 
Cc1cc(C(=O)Nc2cccc(C3(Cc4nncn4C(F)F)COC3)c2)nc(C2CC2)n1 |  |  | < 100 nM | 
CN(c1cc2c(c(C(F)(F)F)c1)CN(c1cccc([C@@](C)(F)C(F)(F)c3nncn3C)c1)C2=O)[C@@H]1CNC[C@H]1F |  |  | < 100 nM | 
Cn1cnnc1CC1(c2cccc(N3Cc4c(cc(CN5CCC(F)CC5)cc4C4CC4)C3=O)c2)COC1 |  |  | < 100 nM | 
C[C@@H]1CN(Cc2cc3c(c(C(F)(F)F)c2)CN(c2cccc(C4(Cc5nncn5C)COC4)c2)C3=O)C[C@H](C)O1 |  |  | < 100 nM | 
C[C@@H](Cc1n[nH]cc1CO)c1cccc(N2Cc3c(cccc3C(F)(F)F)C2=O)c1 |  |  | > 10000 nM | 
Cn1cnnc1CC1(c2cccc(N3Cc4c(cc(CN5CCC(F)(F)C(O)C5)cc4C(F)(F)F)C3=O)c2)COC1 (configuration not stated) |  |  | < 100 nM | 

Structure (SMILES) | fold change (FC) [1] | fold change (FC) [2] | IC50 [6] | other results
Cn1cnnc1CC1(c2cccc(N3Cc4c(cc(CC5CNCCC5=O)cc4C(F)(F)F)C3=O)c2)COC1 (configuration not stated) |  |  | < 100 nM | 
Cn1cnnc1CC1(c2cccc(N3Cc4c(cc(CN5CC[C@@H](F)[C@H](F)C5)cc4C(F)(F)F)C3=O)c2)COC1 |  |  | < 100 nM | 
CN(c1cc2c(c(C(F)(F)F)c1)CN(c1cccc([C@@](C)(F)C(F)(F)c3nncn3C)c1)C2=O)[C@H]1CNC[C@@H]1F |  |  | < 100 nM | 
C[C@H](Sc1nncn1C)c1cccc(NC(=O)c2cccc(N(C)C)c2)c1 |  |  | > 10000 nM | 
Cn1cnnc1CC1(c2cccc(N3Cc4c(cc(CN5CCc6cccnc6C5)cc4C(F)(F)F)C3=O)c2)COC1 |  |  | < 100 nM | 
Cc1nnnn1CC(C)c1cccc(NC(=O)c2cccc(C(F)(F)F)n2)c1 (configuration not stated) |  |  | > 10000 nM | 
Cn1cnnc1CC1(c2cccc(N3Cc4c(cc(CN5CCN6C(=O)CCC6C5)cc4C(F)(F)F)C3=O)c2)COC1 (configuration not stated) |  |  | < 100 nM | 
Cn1cnnc1CC1(c2cccc(N3Cc4c(cc(CN5CC[C@@H]6OCC[C@@H]6C5)cc4C(F)(F)F)C3=O)c2)COC1 (relative stereo) |  |  | < 100 nM | 
C[C@@H]1CN(Cc2cc3c(c(C(F)(F)F)c2)CN(c2cccc(-c4c(-c5nncn5C)cnn4C)c2)C3=O)CCO1 |  |  | < 100 nM | 
COC[C@@H]1CN(Cc2cc3c(c(C(F)(F)F)c2)CN(c2cccc(C4(Cc5nncn5C)COC4)c2)C3=O)CCO1 |  |  | < 100 nM | 
Cn1cnnc1CC1(c2cccc(N3Cc4c(cc(C(O)C(F)(F)F)cc4C(F)(F)F)C3=O)c2)COC1 (configuration not stated) |  |  | < 100 nM | 
Cn1cnnc1CC1(c2cccc(N3Cc4c(cc(CN5CCO[C@H](CO)C5)cc4C(F)(F)F)C3=O)c2)COC1 |  |  | < 100 nM | 
Cn1cnnc1CC1(c2cccc(N3Cc4c(cc(CN5CCOC(C6CC6)C5)cc4C(F)(F)F)C3=O)c2)COC1 (configuration not stated) |  |  | < 100 nM | 
CN1CC[C@H](O)C(Cc2cc3c(c(C(F)(F)F)c2)CN(c2cccc(C4(Cc5nncn5C)COC4)c2)C3=O)C1 (single isomer, unassigned) |  |  | < 100 nM | 
Cn1cnnc1CC1(c2cccc(N3Cc4c(cc(CN5CC[C@@H](F)[C@@H](F)C5)cc4C(F)(F)F)C3=O)c2)COC1 (relative stereo) |  |  | < 100 nM | 
CC(c1cc(C(=O)Nc2cccc(C3(Cc4nncn4C)COC3)c2)nc(C2CC2)n1)N1CCC2(CC2)C1 (single isomer, unassigned; 592b) |  |  | < 100 nM | 
CC(c1cc2c(c(C(F)(F)F)c1)CN(c1cccc(C3(C(F)(F)c4nncn4C)COC3)c1)C2=O)N1CC[C@H](F)C1 (some centres not stated) |  |  | < 100 nM | 
Cn1cnnc1CC1(c2cccc(N3Cc4c(cc(CN5CCOC(CC(F)(F)F)C5)cc4C(F)(F)F)C3=O)c2)COC1 (configuration not stated) |  |  | < 100 nM | 
Cn1cnnc1CC1(c2cccc(N3Cc4c(cc(CN5CC6CC(C5)C6(F)F)cc4C(F)(F)F)C3=O)c2)COC1 |  |  | < 100 nM | 
C[C@@H]1CCN(Cc2cc3c(c(C(F)(F)F)c2)CN(c2cccc(C4(Cc5nncn5C)COC4)c2)C3=O)C[C@@H]1F |  |  | < 100 nM | 
CC(c1cc2c(c(C(F)(F)F)c1)CN(c1cccc(C3(Cc4nncn4C)COC3)c1)C2=O)n1ccnc1 (configuration not stated) |  |  | < 100 nM | 
Cn1cnnc1CC1(c2cccc(N3Cc4c(cc(CN5CCOC(C)(C)C5)cc4C(F)(F)F)C3=O)c2)COC1 |  |  | < 100 nM | 
C[C@@H](Sc1nncn1C)c1ccc(F)c(N2Cc3c(cccc3C(F)(F)F)C2=O)c1 |  |  | > 10000 nM | 
